Results on nine compounds are retold here after patent US8940716B2, “Bicyclic heteroaryl compounds as GPR119 modulators” (Bristol-Myers Squibb Company, priority 2010, dated 2015).

The target of one assay is T1, human-mouse chimeric GPR119 (Homo sapiens, UniProt Q8TDV5, A235T/C313R/C323Y/E253K/F304I/F307L/G211A/G245S/H255C/K284R/L224V/L258Q/L288Q/L301F/P218V/P318T/Q252H/R262K/S214P/S219N/S228A/S309P/S322A/T217S/T239S/V227I/V300F).
T1 construct: the first 198 amino acids of human GPR119; the C-terminal 137 amino acids of the mouse receptor; expressed in transfected cells
T1 sequence (Q8TDV5 with tags, fused parts or gaps G211A/S214P/T217S/P218V/S219N/L224V/V227I/S228A/A235T/T239S/G245S/Q252H/E253K/H255C/L258Q/R262K/K284R/L288Q/V300F/L301F/F304I/F307L/S309P/C313R/P318T/S322A/C323Y): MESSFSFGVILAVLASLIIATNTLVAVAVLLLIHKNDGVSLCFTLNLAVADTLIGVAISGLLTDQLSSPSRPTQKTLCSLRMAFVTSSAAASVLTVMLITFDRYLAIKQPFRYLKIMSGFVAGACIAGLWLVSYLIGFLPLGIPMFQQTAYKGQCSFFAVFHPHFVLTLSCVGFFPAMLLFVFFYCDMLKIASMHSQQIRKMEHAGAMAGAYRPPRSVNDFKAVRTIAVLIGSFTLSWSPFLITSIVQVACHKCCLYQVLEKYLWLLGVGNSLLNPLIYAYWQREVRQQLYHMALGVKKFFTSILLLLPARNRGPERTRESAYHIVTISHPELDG
The assay is described as follows: Tet-inducible cAMP assay. Type of assay: cell-based. The settings on record: cAMP accumulation (HTRF), Flp-In-T-Rex-HEK293 cells expressing chimeric human/mouse GPR119, 50 min incubation; read-out: GPR119 EC50. As to the method: The in vitro modulation of recombinant human GPR119 was determined as follows.
A human-mouse chimeric GPR119 expression construct encoding 3 copies of the FLAG epitope tag, the first 198 amino acids of human GPR119 and the C-terminal 137 amino acids of the mouse receptor was cloned into a tetracycline inducible vector pcDNA5/FRT/TO (Invitrogen #V6520-20), which includes a hygromycin-resistance marker. Tightly controlled receptor expression was achieved by stable integration of this construct into the genome of a specific host cell line, Flp-In-T-Rex-HEK293, expressing the tetracycline repressor (Invitrogen). Once a stable hygromycin-resistant cell line was generated, the cells were maintained at 37° C. in a humidified 5% CO2 atmosphere in culture medium consisting of Dulbecco's modified Eagle's medium (DMEM; Invitrogen #11960) supplemented with 2 mM L-glutamine, 10% fetal bovine serum, 200 μg/ml hygromycin B, and 15 μg/ml blasticidin.
Forty-eight hours prior to the cAMP accumulation assay, cells stably expressing the chimeric human/mouse GPR119 construct were seeded at a density of 4×10^3 cells/well in 384 well poly-D-lysine coated solid white plates (BD #35-6661) and grown at 37° C. in a humidified 5% CO2 atmosphere in culture medium supplemented with 1 μg/ml tetracycline to induce expression of the receptor. On the day of the assay, medium was removed and cells were incubated for 50 min. at 37° C. in a humidified 5% CO2 atmosphere in 20 μl/well of assay buffer (phosphate-buffered saline with Ca^2+ and Mg^2+, 12 mM glucose, 0.1 mM isobutyl-methyl-xanthine, 0.1% fatty-acid free bovine serum albumin) with the desired concentration of compound added from a concentrated stock dissolved in dimethyl sulfoxide (DMSO) to give a final concentration of 1% DMSO in the assay. cAMP accumulation was measured using the CisBio homogeneous time resolved fluorescence (HTRF) assay kit (#62AM2PEC) following the manufacturer's protocol. Briefly, 10 μl each of the cAMP-HTRF fluorescence detection reagents were added to each well, and the samples were incubated for 40 min. at room temperature. Fluorescence was excited at 320 nm and measured at 665 and 620 nm using the Envision instrument (Perkin Elmer), the fluorescence ratio of 665/620 was calculated and converted to nanomolar concentrations of cAMP in each well by interpolation from a cAMP standard curve. The concentration-response curves and EC50 values were calculated with a four parameter logistic curve fit equation utilizing Excel/XLfit software (Microsoft and IDBS). The EC50 value was calculated as the concentration of agonist which increased the cAMP concentration to a value halfway between the baseline and the maximum.
Compounds of the present invention were tested in the Tet-inducible cAMP assay described immediately above and the results shown in Table 2 below were obtained.
A general note: Changes in cAMP serve as a functional read-out for many G protein-coupled receptors.
A word on the EC50: it is the concentration that produces a half-maximal response. With `CCCc1cnc(N2CC[C@H](Oc3nc4ccc(C5=CCN(S(=O)(=O)CCC)CC5)cc4s3)C2)nc1` [Example 115], the half-maximal effective concentration (EC50) was found to be 28.4 nM.

Regarding `CCCS(=O)(=O)N1CC=C(c2ccc3nc(OC4CCN(S(C)(=O)=O)CC4)sc3c2)CC1` [Example 111], the EC50 was determined as 228 nM. The same measure, in the same setting: under `CCCc1cnc(N2CCC(Cc3nc4ccc(C5CCN(S(=O)(=O)CCC)CC5)cc4o3)CC2)nc1` [Example 147] stands 49.3 nM.

As to `CC(C)(O)CCS(=O)(=O)N1CC=C(c2ccc3nc(OC4CCN(c5ncc(Cl)cn5)CC4)sc3c2)CC1` [Example 118], the EC50 came to 3.6 nM. The same measure, in the same setting: next, `O=S(=O)(CCCO)N1CCN(c2ccc3nc(OC4CCN(c5ncc(F)cn5)CC4)sc3c2)CC1` [Example 221]: 13.9 nM; `COc1cnc(N2CCC(Oc3nc4ccc(C5=CCN(S(=O)(=O)CCCCO)CC5)cc4s3)CC2)nc1` [Example 241]: 0.4 nM.

For `CCCc1cnc(N2CCC(Oc3nc4ccc(N5CCC(C(=O)N6CCCC6)CC5)cc4s3)CC2)nc1` [Example 45, (1-(2-(1-(5-Propylpyrimidin-2-yl)piperidin-4-yloxy)benzo[d]thiazol-6-yl)piperidin-4-yl)(pyrrolidin-1-yl)methanone], the concentration for a half-maximal effect (EC50) was found to be 463 nM. The same measure, in the same setting: next, `CCCS(=O)(=O)N1CC=C(c2ccc3nc(OC4CCN(c5nnc(C)s5)CC4)sc3c2)CC1` [Example 107]: 21.5 nM.

The next assay concerns plasma glucose in male C57BL/6J mice. The assay is described as follows: Mouse oral glucose tolerance test. Type of assay: in vivo. The settings on record: change in plasma glucose AUC vs vehicle at the minimally efficacious dose, oGTT, oral. As to the method:
Twenty four (24) male C57BL/6J mice (8-10 weeks old, average weight 28 g) were randomized into 4 groups (1 mouse/cage) of 6 mice per group based on fed plasma glucose and body weight. Prior to initiating the study, mice were fasted overnight and the next morning they were weighed and placed in the experimental lab. After 30 min in the environment, the mice were bled via tail tip at −60 min and immediately given their first oral administration of vehicle (40% PEG400, 10% Cremophor EL, 50% water) or compound solutions (5 ml/kg). At time 0 the mice were bled and given 50% glucose (2 g/kg) to initiate the oral glucose tolerance test (oGTT). The mice were bled 30, 60 and 120 min after the glucose load. Blood samples were drawn into potassium EDTA, placed on ice during the study and subsequently centrifuged for 10 min at 3000 rpm at 4° C. Plasma samples were diluted 11-fold for glucose analysis in the COBAS MIRA® System (Roche Diagnostics). Area under the curve was calculated from the plasma glucose time course data using the trapezoid rule with fasting plasma glucose as the baseline (GraphPad Prism Software). The statistical significance of the changes in the glucose AUCs resulting from the different treatments was determined by one-way ANOVA followed by Dunnett's test using the vehicle group as the control (JMP software, release 5.1.2). […]
Take `CCCc1cnc(N2CCC(Oc3nc4ccc(C5=CCN(S(=O)(=O)CCC)CC5)cc4s3)CC2)nc1` [Example 1, 2-(1-(5-Propylpyrimidin-2-yl)piperidin-4-yloxy)-6-(1-(propylsulfonyl)-1,2,3,6-tetrahydropyridin-4-yl)benzo[d]thiazole]: the “Glucose Lowering (%)” value was −39%.

The same assay, now with this note: oral administration 60 min before glucose load (2 g/kg), fasted male C57BL/6J mice.
For the compound `CCCc1cnc(N2CCC(Oc3nc4ccc(C5=CCN(S(=O)(=O)CCC)CC5)cc4s3)CC2)nc1` [Example 1, 2-(1-(5-Propylpyrimidin-2-yl)piperidin-4-yloxy)-6-(1-(propylsulfonyl)-1,2,3,6-tetrahydropyridin-4-yl)benzo[d]thiazole], the “Minimally efficacious Dose” value is listed as 10 mg/kg.
